Experimental data reported in patent US20090105305A1, “Therapeutic Agents - 550” (AstraZeneca AB, priority 2006, published 2009).

molecular target: T1, human Fatty Acid Synthase (Homo sapiens, UniProt P49327); assay: Human FAS enzyme assay (decrease in NADPH fluorescence); format: biochemical; settings: % inhibition at a concentration of 100 micromolar
T1 construct: made in house
Outline: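 In-house human FAS (0.4 μg) was preincubated 15 min at RT with compound and NADPH (added at 166.6 μM) in 0.1 M Tris pH 7.5, 1 mM glutathione, 0.05% BSA. Malonyl-/acetyl-CoA (500/150 μM in substrate mix) was then added for 60 min. Readout was NADPH fluorescence loss (ex 340/em 460) over a time-zero read, with IC50 from a sigmoid fit.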

T1 sequence (P49327 whole entry): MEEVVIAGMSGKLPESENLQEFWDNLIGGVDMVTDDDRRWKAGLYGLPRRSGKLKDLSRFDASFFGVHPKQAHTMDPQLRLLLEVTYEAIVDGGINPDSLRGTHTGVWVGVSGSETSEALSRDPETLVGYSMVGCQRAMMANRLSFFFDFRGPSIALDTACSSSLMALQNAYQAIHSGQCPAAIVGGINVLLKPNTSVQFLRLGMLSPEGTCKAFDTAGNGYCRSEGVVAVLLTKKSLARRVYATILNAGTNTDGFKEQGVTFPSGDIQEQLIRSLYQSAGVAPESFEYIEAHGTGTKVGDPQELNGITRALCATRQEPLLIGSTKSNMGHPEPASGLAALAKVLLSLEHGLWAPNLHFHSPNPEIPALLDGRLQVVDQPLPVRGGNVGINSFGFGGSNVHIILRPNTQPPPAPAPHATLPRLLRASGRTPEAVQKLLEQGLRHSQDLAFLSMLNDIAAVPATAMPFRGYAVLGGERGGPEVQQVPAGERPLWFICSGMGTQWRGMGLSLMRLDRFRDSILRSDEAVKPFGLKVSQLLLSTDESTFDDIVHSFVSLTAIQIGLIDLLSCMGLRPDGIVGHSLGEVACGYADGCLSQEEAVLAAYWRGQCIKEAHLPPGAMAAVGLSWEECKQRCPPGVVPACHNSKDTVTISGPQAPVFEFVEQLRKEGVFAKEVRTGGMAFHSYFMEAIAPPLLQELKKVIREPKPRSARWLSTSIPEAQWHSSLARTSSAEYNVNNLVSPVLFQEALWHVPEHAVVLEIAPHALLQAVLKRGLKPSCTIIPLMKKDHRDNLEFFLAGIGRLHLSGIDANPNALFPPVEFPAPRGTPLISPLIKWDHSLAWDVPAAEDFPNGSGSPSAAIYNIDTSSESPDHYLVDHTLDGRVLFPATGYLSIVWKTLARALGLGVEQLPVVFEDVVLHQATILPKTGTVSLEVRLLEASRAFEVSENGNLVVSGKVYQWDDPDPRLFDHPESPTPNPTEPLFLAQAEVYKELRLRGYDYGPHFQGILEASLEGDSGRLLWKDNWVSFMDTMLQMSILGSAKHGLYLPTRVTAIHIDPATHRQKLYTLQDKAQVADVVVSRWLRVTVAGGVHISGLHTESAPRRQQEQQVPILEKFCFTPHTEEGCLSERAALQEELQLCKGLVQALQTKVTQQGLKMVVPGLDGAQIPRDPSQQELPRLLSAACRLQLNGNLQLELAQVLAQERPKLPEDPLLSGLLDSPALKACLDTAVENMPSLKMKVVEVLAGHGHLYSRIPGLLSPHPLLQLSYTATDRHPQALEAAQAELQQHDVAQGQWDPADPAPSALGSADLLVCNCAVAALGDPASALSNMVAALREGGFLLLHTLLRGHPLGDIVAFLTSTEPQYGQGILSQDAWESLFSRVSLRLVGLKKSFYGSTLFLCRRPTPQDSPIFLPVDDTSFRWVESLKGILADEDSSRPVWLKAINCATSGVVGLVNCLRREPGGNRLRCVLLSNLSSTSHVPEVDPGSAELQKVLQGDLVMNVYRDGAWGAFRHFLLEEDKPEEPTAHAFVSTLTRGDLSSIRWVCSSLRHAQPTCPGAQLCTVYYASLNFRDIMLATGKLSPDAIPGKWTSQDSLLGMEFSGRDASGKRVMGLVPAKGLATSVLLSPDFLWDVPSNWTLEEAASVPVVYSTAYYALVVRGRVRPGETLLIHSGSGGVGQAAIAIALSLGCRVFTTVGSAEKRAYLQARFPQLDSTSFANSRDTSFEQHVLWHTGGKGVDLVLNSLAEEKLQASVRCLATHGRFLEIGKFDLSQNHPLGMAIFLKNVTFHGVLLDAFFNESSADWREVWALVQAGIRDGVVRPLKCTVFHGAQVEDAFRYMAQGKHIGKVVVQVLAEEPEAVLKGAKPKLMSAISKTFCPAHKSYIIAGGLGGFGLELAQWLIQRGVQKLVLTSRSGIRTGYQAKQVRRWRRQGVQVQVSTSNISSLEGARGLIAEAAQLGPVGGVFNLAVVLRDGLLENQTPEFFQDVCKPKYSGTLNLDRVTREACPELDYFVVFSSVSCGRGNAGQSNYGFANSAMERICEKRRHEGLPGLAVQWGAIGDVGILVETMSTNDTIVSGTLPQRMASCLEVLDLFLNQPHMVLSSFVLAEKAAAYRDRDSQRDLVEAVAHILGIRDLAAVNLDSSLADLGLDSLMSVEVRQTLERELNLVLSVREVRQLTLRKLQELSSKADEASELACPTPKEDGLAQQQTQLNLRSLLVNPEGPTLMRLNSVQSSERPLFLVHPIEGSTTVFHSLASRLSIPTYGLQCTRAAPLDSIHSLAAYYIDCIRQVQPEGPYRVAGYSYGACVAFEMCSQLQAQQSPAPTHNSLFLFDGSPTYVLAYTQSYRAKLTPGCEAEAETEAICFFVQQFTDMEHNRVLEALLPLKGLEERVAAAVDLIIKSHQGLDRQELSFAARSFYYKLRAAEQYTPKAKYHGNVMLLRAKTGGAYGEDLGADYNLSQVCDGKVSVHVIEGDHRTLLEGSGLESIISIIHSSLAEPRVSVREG

First: Cc1ccc(C(=O)N2CCC(c3ccc(C#N)cc3)CC2)cc1NS(=O)(=O)c1cccc(C(N)=O)c1 [Example 81, 3-[[5-[4-(4-cyanophenyl)piperidine-1-carbonyl]-2-methyl-phenyl]sulfamoyl]benzamide]
Second: Cc1ccc(C(=O)N2CCC(c3ccc(C#N)cc3)CC2)cc1NS(=O)(=O)c1ccccc1C#N [Example 20, 2-cyano-N-[5-[4-(4-cyanophenyl)piperidine-1-carbonyl]-2-methyl-phenyl]benzenesulfonamide]
The inhibition at 100 µM of the first is higher: 90% for the first, 85% for the second.

First: Cc1ccc(C(=O)N2CCC(c3ccc(C#N)cc3)CC2)cc1NS(=O)(=O)c1ccccc1C(=O)N(C)C [Example 206, 2-[[5-[4-(4-cyanophenyl)piperidine-1-carbonyl]-2-methylphenyl]sulfamoyl]-N,N-dimethylbenzamide]
Second: Cc1ccc(C(=O)N2CCC(c3ccc(-c4ccccn4)cc3)CC2)cc1NS(C)(=O)=O [Example 173, N-[2-methyl-5-[4-(4-pyridin-2-ylphenyl)piperidine-1-carbonyl]phenyl]methanesulfonamide]
The inhibition at 100 µM of the first is higher: 76% for the first, 64% for the second.

Compared with `Cc1ccc(C(=O)N2CCC(c3ccc(C(F)(F)F)cc3)CC2)cc1NS(=O)(=O)C1CCS(=O)(=O)C1` (centres unmarked) [Example 177, N-[2-methyl-5-[4-[4-(trifluoromethyl)phenyl]piperidine-1-carbonyl]phenyl]-1,1-dioxothiolane-3-sulfonamide], `Cc1ccc(C(=O)N2CCC(c3ccc(CCC(=O)O)cc3)CC2)cc1NS(=O)(=O)C1CCCCC1` [Example 244, 3-[4-[1-[3-(cyclohexylsulfonylamino)-4-methylbenzoyl]piperidin-4-yl]phenyl]propanoic acid] is higher in inhibition at 100 µM: 91% for the first, 92.3% for the second.

First: Cc1ccc(C(=O)N2CCC(c3ccc(C(=O)N4CCOCC4)cc3)CC2)cc1NS(C)(=O)=O [Example 231, N-[2-methyl-5-[4-[4-(morpholine-4-carbonyl)phenyl]piperidine-1-carbonyl]phenyl]methanesulfonamide]
Second: Cc1ccc(C(=O)N2CCC(c3ccc(Oc4ncccn4)cc3)CC2)cc1NS(C)(=O)=O [Example 190, N-[2-methyl-5-[4-(4-pyrimidin-2-yloxyphenyl)piperidine-1-carbonyl]phenyl]methanesulfonamide]
The inhibition at 100 µM of the first is lower: 86.1% for the first, 88% for the second.

Going from `Cc1ccc(C(=O)N2CCC(c3ccc(C#N)cc3)CC2)cc1NS(=O)(=O)CC1CCCCC1` [Example 15, N-[5-[4-(4-cyanophenyl)piperidine-1-carbonyl]-2-methyl-phenyl]-1-cyclohexyl-methanesulfonamide] to `CCC(C)S(=O)(=O)Nc1ccc(C)c(C(=O)N2CCC(c3ccc(C#N)cc3)CC2)c1` (racemic) [Example 44, (RS) N-[3-[4-(4-cyanophenyl)piperidine-1-carbonyl]-4-methyl-phenyl]butane-2-sulfonamide], the inhibition at 100 µM falls from 93% to 89%.

Going from `Cc1ccc(NS(=O)(=O)CCc2ccccc2)cc1C(=O)N1CCC(c2ccc(C#N)cc2)CC1` [Example 58, N-[3-[4-(4-cyanophenyl)piperidine-1-carbonyl]-4-methyl-phenyl]-2-phenyl-ethanesulfonamide] to `Cc1ccc(NS(=O)(=O)c2cnoc2C)cc1C(=O)N1CCC(c2ccc(C#N)cc2)CC1` [Example 39, N-[3-[4-(4-cyanophenyl)piperidine-1-carbonyl]-4-methyl-phenyl]-5-methyl-1,2-oxazole-4-sulfonamide], the inhibition at 100 µM falls from 92% to 80%.

same assay, conditions: compounds excluded from the claims by proviso

`COc1ccccc1C1CCN(C(=O)c2ccc(C)c(NS(C)(=O)=O)c2)CC1` [N-[5-[4-(2-methoxyphenyl)piperidine-1-carbonyl]-2-methylphenyl]methanesulfonamide] was tested, and the “IC50s in the range of about 0.001 μM to about 30 μM” value was “do not have IC50s in the range of about 0.001 μM to about 30 μM”.
`Cc1ccc(C(=O)N2CCC(c3cccc(Cl)c3)CC2)cc1NS(C)(=O)=O` [N-[5-[4-(3-chlorophenyl)piperidine-1-carbonyl]-2-methylphenyl]methanesulfonamide] was tested, and the “IC50s in the range of about 0.001 μM to about 30 μM” value was “do not have IC50s in the range of about 0.001 μM to about 30 μM”.
